Measurements from ChEMBL document CHEMBL1127211, “Biselectrostatic interaction with DNA as potential anti-turmor agents: novel 2,11-diamino-5,8-dithiaundecane derivatives” (1993).
Values after ≈ are worked out from the molar mass of the structure shown.

Key:
Assay type in all cases: functional
Conditions in all cases: Homo sapiens, read-out: LD50 (the source's name)
COLO 205 = test: Tested for its in vitro cytotoxicity against COLO-205 cells
HEp-2 = test: Tested for its in vitro cytotoxicity against HEP-2 cells
[1] = Tested for its in vitro cytotoxicity against KB cells
HeLa = test: Tested for its in vitro cytotoxicity against Hela cells

SMILES	CC50 (COLO 205)	CC50 (HEp-2)	CC50 [1]	CC50 (HeLa)
NCCCSCC(COc1cccc(-c2ccccc2)c1)SCCCN (stereo unspecified)	1.41 µg/mL (≈ 3.61 µM)	1.36 µg/mL (≈ 3.48 µM)	1.55 µg/mL (≈ 3.97 µM)	1.2 µg/mL (≈ 3.07 µM)
NCCCSCC(COc1ccc(NC(=O)c2cc(-c3ccccc3)nc3ccccc23)cc1)SCCCN (stereo unspecified)	5.2 µg/mL (≈ 9.27 µM)	1.92 µg/mL (≈ 3.42 µM)		6.18 µg/mL (≈ 11 µM)
NCCCSCC(COc1ccc(-c2ccccc2)cc1)SCCCN (stereo unspecified)	1.05 µg/mL (≈ 2.69 µM)	1.45 µg/mL (≈ 3.71 µM)	0.92 µg/mL (≈ 2.36 µM)	0.68 µg/mL (≈ 1.74 µM)
